Measurements reported in PubChem BioAssay (NCI).
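Where inhibition never reached the appropriate level, the endpoint shown equals the highest concentration tested. Otherwise, values were interpolated linearly from a five-concentration, 48-hour dose response in 96-well plates. GI50: concentration for 50% inhibition of growth. TGI is the concentration that stops growth completely.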

Experiments:
Experiment in all cases: NCI anticancer screen, dose series, 48 h
A549 NSCLC = test system: A549 NSCLC
HCT-116 colon = test system: HCT-116 colon
IGROV1 ovarian = test system: IGROV1 ovarian
MALME-3M melanoma = test system: MALME-3M melanoma
MDA-MB-435 = test system: MDA-MB-435
MDA-N = test system: MDA-N
OVCAR-8 ovarian = test system: OVCAR-8 ovarian
PC-3 prostate = test system: PC-3 prostate
SK-MEL-28 melanoma = test system: SK-MEL-28 melanoma
SK-MEL-5 melanoma = test system: SK-MEL-5 melanoma
SN12C renal = test system: SN12C renal
SNB-19 CNS = test system: SNB-19 CNS
T-47D breast = test system: T-47D breast
TK-10 renal = test system: TK-10 renal
UACC-62 melanoma = test system: UACC-62 melanoma
UO-31 renal = test system: UO-31 renal
BT-549 breast = test system: BT-549 breast

SMILES	TGI (A549 NSCLC) [µM]	TGI (HCT-116 colon) [µM]	TGI (IGROV1 ovarian) [µM]	TGI (MALME-3M melanoma) [µM]	TGI (MDA-MB-435) [µM]	TGI (MDA-N) [µM]	TGI (OVCAR-8 ovarian) [µM]	TGI (PC-3 prostate) [µM]	TGI (SK-MEL-28 melanoma) [µM]	TGI (SK-MEL-5 melanoma) [µM]	TGI (SN12C renal) [µM]	TGI (SNB-19 CNS) [µM]	TGI (T-47D breast) [µM]	TGI (TK-10 renal) [µM]	TGI (UACC-62 melanoma) [µM]	TGI (UO-31 renal) [µM]	TGI (BT-549 breast) [µM]	GI50 (HCT-116 colon) [µM]	GI50 (SN12C renal) [µM]	GI50 (UACC-62 melanoma) [µM]
CC1(C)N=C(/C=N/O)C(C)(C)N1O	> 100	> 100	> 100	> 100	> 100	> 100	> 100	> 100	> 100	> 100	> 100	> 100	> 100	> 100	> 100	> 100	–	–	–	–
CC1C(c2ccc3c(c2)OCO3)c2cc3c(cc2OC1N1CCCCC1)OCO3 (centres undefined)	> 100	> 100	> 100	–	62.8	48.6	> 100	> 100	> 100	> 100	> 100	> 100	> 100	> 100	> 100	> 100	–	–	–	–
CSc1nc(O)c(/C=C2\C=Nc3ccccc32)[nH]1	> 100	> 100	> 100	> 100	> 100	–	> 100	> 100	> 100	> 100	> 100	> 100	> 100	> 100	> 100	> 100	> 100	–	–	–
COc1ccc(C2SCC(=O)N2NC(=O)C(C)Oc2ccccc2Cl)cc1 (centres undefined)	> 100	> 100	> 100	–	> 100	–	> 100	> 100	> 100	65.6	> 100	> 100	> 100	> 100	> 100	> 100	> 100	–	–	–
C=Cc1cc2c(cc1O)CC[C@@H]1[C@@H]2CC[C@]2(C)[C@@H](O)CC[C@@H]12	19.9	12.1	19.3	10.4	4.29	7.76	–	36.5	16.7	15.7	19.5	13.6	36.2	38.3	8.65	20.5	–	2.57	5.12	2.53
Cc1cc(O)c(/C=N/c2nc(-c3cccc([N+](=O)[O-])c3)cs2)c(=O)o1	> 100	> 100	> 100	–	> 100	–	> 100	> 100	> 100	> 100	> 100	> 100	> 100	26.6	> 100	> 100	73.5	–	–	–
CC(C)NC(=O)OCc1c(COC(=O)NC(C)C)c(-c2ccc[n+](COC(=O)C3CC3)c2)n2c1CCC2	> 100	> 100	> 100	> 100	> 100	–	> 100	> 100	> 100	> 100	> 100	> 100	> 100	> 100	> 100	> 100	> 100	–	–	–
CCc1n[nH]c(=O)n1NC(=O)c1ccccc1C(=O)O	> 100	> 100	> 100	–	> 100	> 100	> 100	> 100	> 100	> 100	> 100	> 100	–	> 100	> 100	> 100	> 100	–	–	–
CCn1c(-c2ccc(C)cc2)cs/c1=N\C(P(=O)(O)O)P(=O)(O)O	> 100	> 100	> 100	> 100	> 100	> 100	> 100	> 100	> 100	> 100	–	> 100	–	> 100	> 100	> 100	> 100	–	–	–
CCOC(=O)C(C)(C)/C=C\C(Cl)=C(Cl)Cl	> 100	> 100	> 100	> 100	> 100	> 100	> 100	> 100	> 100	> 100	> 100	> 100	–	> 100	> 100	> 100	–	–	–	–
O=CC1OC(=O)c2cc(O)c(O)c(O)c2-c2c(cc(O)c(O)c2O)C(=O)OC1C(O)C(O)CO (centres undefined)	> 100	81.1	> 100	> 100	32.9	36.2	45.8	31.9	> 100	> 100	> 100	> 100	–	> 100	–	> 100	> 100	–	–	–
O=C(NCCCCNCCCNC(=O)c1cc(-c2ccccc2)nc2ccccc12)c1cc(-c2ccccc2)nc2ccccc12	3.01	3.2	2.88	3.23	3.17	3.23	3.06	2.98	3.42	2.75	3.38	–	–	2.93	3.9	3.21	37.5	–	–	–
Nc1nc(N)c2nnn(C[C@H]3CC[C@@H](CO)C3)c2n1	> 100	> 100	> 100	> 100	> 100	> 100	> 100	> 100	> 100	–	93.3	> 100	–	> 100	> 100	> 100	> 100	–	–	–
O[C@H]1[C@H](O)[C@H](O)CN2CCC[C@@H](O)[C@H]12	> 100	> 100	> 100	–	> 100	–	> 100	> 100	> 100	> 100	> 100	> 100	> 100	> 100	> 100	> 100	> 100	–	–	–
Fc1cc(-c2ncc(Cl)cc2Cl)c2cccccc1-2	> 100	> 100	> 100	> 100	–	> 100	> 100	> 100	–	> 100	–	> 100	–	> 100	> 100	> 100	> 100	–	–	–
